We go through 27 compounds from publication PMC4648982 (Chemistry Central Journal, 2015).

Entries after “also recorded” stand apart in the source; their conditions may differ. Where a name gives a salt, the structure may show the parent alone. Read-outs that look alike come from different tables or passages of the source.

The target of the assay is jack bean urease (Canavalia ensiformis, UniProt P07374). Description: biochemical. As to conditions: for urease inhibitory activity in words: in vitro assay, authors' verbal grading. Here is the method: Reaction mixture comprising of 25μL of enzyme (jack bean urease) (1 unit/well) solution and 55 μL of phosphate buffers (4 mM) containing 100 mM urea were incubated with 5 μL of test compounds dissolved in methanol (0.5 mM concentration) at 30 °C for 15 min in 96-well plates. Urease activity was determined by measuring ammonia production using the indophenol method as described by Weather burn. Briefly, 45 μl each phenol reagent (1 % w/v phenol and 0.005 % w/v sodium nitroprussside) and 70 μL of alkali reagent(0.5 % w/v NaOH and 0.1 % active chloride NaOCl) were added to each well. The increasing absorbance at 630 nm was measured afther 50 min, using a microplate reader (Molecular Device, USA). All reactions were performed in triplicate in a final volume of 200 μL. The results (change in absorbance per min) were processed by using softMax Pro software (molecular Device, USA). The entire assays were performed at pH 6.8. Percentage inhibitions were calculated from the formula 100 − (ODtestwell/ODcontrol) × 100. Thiourea was used as the standard inhibitor of urease.
Chain of jack bean urease (P07374 whole entry, looked up): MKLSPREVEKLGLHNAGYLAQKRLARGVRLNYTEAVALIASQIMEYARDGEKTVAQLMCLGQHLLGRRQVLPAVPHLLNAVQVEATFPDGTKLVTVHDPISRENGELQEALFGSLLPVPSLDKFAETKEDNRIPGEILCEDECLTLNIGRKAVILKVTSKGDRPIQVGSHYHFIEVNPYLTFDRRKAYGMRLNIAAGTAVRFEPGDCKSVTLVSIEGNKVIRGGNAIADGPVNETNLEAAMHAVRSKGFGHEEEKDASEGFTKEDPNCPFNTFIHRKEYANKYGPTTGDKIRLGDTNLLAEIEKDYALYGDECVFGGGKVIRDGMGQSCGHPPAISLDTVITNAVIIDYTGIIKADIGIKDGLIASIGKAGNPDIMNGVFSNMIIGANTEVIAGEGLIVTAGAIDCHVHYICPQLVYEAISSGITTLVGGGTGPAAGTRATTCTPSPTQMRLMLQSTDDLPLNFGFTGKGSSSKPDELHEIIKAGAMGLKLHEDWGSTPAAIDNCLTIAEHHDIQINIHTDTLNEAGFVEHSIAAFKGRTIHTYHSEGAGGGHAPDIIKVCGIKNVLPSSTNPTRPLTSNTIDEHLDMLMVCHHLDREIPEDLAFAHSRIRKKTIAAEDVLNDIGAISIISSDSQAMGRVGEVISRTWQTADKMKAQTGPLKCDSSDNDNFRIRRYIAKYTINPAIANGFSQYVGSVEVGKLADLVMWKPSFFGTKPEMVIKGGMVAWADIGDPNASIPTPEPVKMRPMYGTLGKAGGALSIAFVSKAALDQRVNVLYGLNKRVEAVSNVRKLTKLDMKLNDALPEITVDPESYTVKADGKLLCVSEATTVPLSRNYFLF

In the case of “2-((2-Hydroxy-4,4-dimethyl-6-oxocyclohex-1-en-1-yl)(m-tolyl)methyl)-5,5-dimethyl-3-oxocyclohex-1-enolate diethylaminium salt [Compound 5d]”, under “jack bean urease, indophenol method, pH 6.8, 30 °C, 15 min incubation, triplicate, read-out: Urease inhibition IC50 ± SEM”, the IC50 (commonly the concentration at which inhibition is half-maximal) stood at 51.3 ± 0.45 µM.

`Cn1c(O)c(C(c2ccc(C=O)cc2)c2c(O)n(C)c(=O)n(C)c2=O)c(=O)n(C)c1=O` [Compound 4a, 4-(bis(6-Hydroxy-1,3-dimethyl-2,4-dioxo-1,2,3,4-tetrahydropyrimidin-5-yl)methyl)benzaldehyde diethylaminium salt] gave an IC50 of 39.3 ± 0.36 µM.

Compound `Cc1cccc(C(c2c(O)n(C)c(=O)n(C)c2=O)c2c(O)n(C)c(=O)n(C)c2=O)c1` [Compound 4b, 5,5′-(3-Tolylmethylene)bis(1,3-dimethylpyrimidine-2,4,6(1H,3H,5H)-trione) diethylaminium salt] gave an IC50 of 34.4 ± 1.57 µM.

In the case of `Cn1c(O)c(C(c2ccc([N+](=O)[O-])cc2)c2c(O)n(C)c(=O)n(C)c2=O)c(=O)n(C)c1=O` [Compound 4c, 5,5′-((4-Nitrophenyl)methylene)bis(1,3-dimethylpyrimidine-2,4,6(1H,3H,5H)-trione)diethylaminium salt], the IC50 was 54.2 ± 0.47 µM.

`COc1ccc(C(c2c(O)n(C)c(=O)n(C)c2=O)c2c(O)n(C)c(=O)n(C)c2=O)cc1` [Compound 4d, 5,5′-((4-Methoxyphenyl)methylene)bis(1,3-dimethylpyrimidine-2,4,6(1H,3H,5H)-trione) diethylaminium salt] came in with an IC50 of 31.6 ± 0.79 µM.

Compound `Cn1c(O)c(C(c2cccc(Br)c2)c2c(O)n(C)c(=O)n(C)c2=O)c(=O)n(C)c1=O` [Compound 4e, 5,5′-((3-Bromophenyl)methylene)bis(1,3-dimethylpyrimidine-2,4,6(1H,3H,5H)-trione) diethylaminium salt] yielded an IC50 of 27.5 ± 0.12 µM.

Compound `Cn1c(O)c(C(c2ccc(O)cc2)c2c(O)n(C)c(=O)n(C)c2=O)c(=O)n(C)c1=O` [Compound 4f, 5,5′-((4-hydroxyphenyl)methylene)bis(6-hydroxy-1,3-dimethylpyrimidine-2,4(1H,3H)-dione) diethylaminium salt] had an IC50 of 54.2 ± 0.83 µM.

`Cc1ccc(C(c2c(O)n(C)c(=O)n(C)c2=O)c2c(O)n(C)c(=O)n(C)c2=O)cc1` [Compound 4g, 5,5′-(p-Tolylmethylene)bis(1,3-dimethylpyrimidine-2,4,6(1H,3H,5H)-trione) diethylaminium salt]: inhibition was half-maximal at 28.5 ± 0.41 µM (IC50).

The compound `Cn1c(O)c(C(c2ccc3ccccc3c2)c2c(O)n(C)c(=O)n(C)c2=O)c(=O)n(C)c1=O` [Compound 4h, 5,5′-(Naphthalen-2-ylmethylene)bis(1,3-dimethylpyrimidine-2,4,6(1H,3H,5H)-trione) diethylaminium salt] yielded an IC50 of 40.3 ± 0.32 µM.

Take `Cc1ccc(C(c2c(O)[nH]c(=O)[nH]c2=O)c2c(O)[nH]c(=O)[nH]c2=O)cc1` [Compound 4i, 5,5′-(p-Tolylmethylene)bis(6-hydroxypyrimidine-2,4(1H,3H)-dione) diethylaminium salt]: the IC50 was found to be 17.6 ± 0.23 µM and the “urease inhibitory activity in words” value is given as “most active”.

`O=c1[nH]c(O)c(C(c2ccc(Cl)cc2)c2c(O)[nH]c(=O)[nH]c2=O)c(=O)[nH]1` [Compound 4j, 5,5′-((4-Chlorophenyl)methylene)bis(6-hydroxypyrimidine-2,4(1H,3H)-dione) diethylaminium salt]: the IC50 was 22.3 ± 0.73 µM and the “urease inhibitory activity in words” value is on record as “active”.

Consider `COc1ccc(C(c2c(O)[nH]c(=O)[nH]c2=O)c2c(O)[nH]c(=O)[nH]c2=O)cc1` [Compound 4k, 5,5′-((4-Methoxyphenyl)methylene)bis(6-hydroxypyrimidine-2,4(1H,3H)-dione) diethylaminium salt], for which the IC50 amounted to 25.8 ± 0.23 µM.

Regarding `O=c1[nH]c(O)c(C(c2ccc3ccccc3c2)c2c(O)[nH]c(=O)[nH]c2=O)c(=O)[nH]1` [Compound 4l, 5,5′-(Naphthalen-2-ylmethylene)bis(6-hydroxypyrimidine-2,4(1H,3H)-dione) diethylaminium salt], the IC50 is 22.7 ± 0.2 µM.

In the case of `Cn1c(O)c(C(C2=C(O)CC(C)(C)CC2=O)c2ccccc2)c(=O)n(C)c1=O` (stereo not shown) [Compound 4m, 5-((2-Hydroxy-4,4-dimethyl-6-oxocyclohex-1-en-1-yl)(phenyl)methyl)-1,3-dimethyl-2,6-dioxo-1,2,3,6-tetrahydropyrimidin-4-olate diethylaminium salt], the IC50 is 39.3 ± 0.79 µM.

Compound `Cc1ccc(C(C2=C(O)CC(C)(C)CC2=O)c2c(O)n(C)c(=O)n(C)c2=O)cc1` (stereo not shown) [Compound 4n, 5-((2-Hydroxy-4,4-dimethyl-6-oxocyclohex-1-en-1-yl)(p-tolyl)methyl)-1,3-dimethyl-2,6-dioxo-1,2,3,6-tetrahydropyrimidin-4-olate diethylaminium salt] came in with an IC50 of 41.2 ± 0.58 µM.

As to `COc1ccc(C(C2=C(O)CC(C)(C)CC2=O)c2c(O)n(C)c(=O)n(C)c2=O)cc1` (stereo not shown) [Compound 4o, 5-((2-Hydroxy-4,4-dimethyl-6-oxocyclohex-1-en-1-yl)(4-methoxyphenyl)methyl)-1,3-dimethyl-2,6-dioxo-1,2,3,6-tetrahydropyrimidin-4-olate diethylaminium salt], the IC50 was 83 ± 0.66 µM.

On to `Cn1c(O)c(C(C2=C(O)CC(C)(C)CC2=O)c2ccc(Cl)cc2)c(=O)n(C)c1=O` (stereo not shown) [Compound 4p, 5-((4-Chlorophenyl)(2-hydroxy-4,4-dimethyl-6-oxocyclohex-1-en-1-yl)methyl)-1,3-dimethyl-2,6-dioxo-1,2,3,6-tetrahydropyrimidin-4-olate diethylaminium salt], for which the IC50 amounted to 39.7 ± 0.7 µM.

For the compound `Cn1c(O)c(C(C2=C(O)CC(C)(C)CC2=O)c2ccc(Br)cc2)c(=O)n(C)c1=O` (stereo not shown) [Compound 4q, 5-((4-Bromophenyl)(2-hydroxy-4,4-dimethyl-6-oxocyclohex-1-en-1-yl)methyl)-1,3-dimethyl-2,6-dioxo-1,2,3,6-tetrahydropyrimidin-4-olate diethylaminium salt], the IC50 is 24.6 ± 0.42 µM.

The compound `Cn1c(O)c(C(C2=C(O)CC(C)(C)CC2=O)c2cccc(Br)c2)c(=O)n(C)c1=O` (stereo not shown) [Compound 4r, 5-((3-Bromophenyl)(2-hydroxy-4,4-dimethyl-6-oxocyclohex-1-en-1-yl)methyl)-1,3-dimethyl-2,6-dioxo-1,2,3,6-tetrahydropyrimidin-4-olate diethylaminium salt] showed an IC50 of 27.5 ± 0.19 µM.

`Cn1c(O)c(C(C2=C(O)CC(C)(C)CC2=O)c2ccccc2[N+](=O)[O-])c(=O)n(C)c1=O` (stereo not shown) [Compound 4s, 5-((2-Hydroxy-4,4-dimethyl-6-oxocyclohex-1-en-1-yl)(1-nitrophenyl)methyl)-1,3-dimethyl-2,6-dioxo-1,2,3,6-tetrahydropyrimidin-4-olate diethylaminium salt]: the IC50 came to 110 ± 1.1 µM and the “urease inhibitory activity in words” value is given as “inactivity”.

Regarding `CN(C)c1ccc(C(C2=C(O)CC(C)(C)CC2=O)c2c(O)n(C)c(=O)n(C)c2=O)cc1` (stereo not shown) [Compound 4t, 5-((2-Hydroxy-4,4-dimethyl-6-oxocyclohex-1-en-1-yl)(4-(dimethylamino)phenyl)methyl)-1,3-dimethyl-2,6-dioxo-1,2,3,6-tetrahydropyrimidin-4-olate diethylaminium salt], the 50% inhibitory concentration (IC50) stood at 142.1 ± 0.64 µM and the “urease inhibitory activity in words” value is on record as “least active; also recorded: inactivity”.

The compound `Cn1c(O)c(C(C2=C(O)CC(C)(C)CC2=O)c2ccc(O)cc2)c(=O)n(C)c1=O` (stereo not shown) [Compound 4v, 5-((2-Hydroxy-4,4-dimethyl-6-oxocyclohex-1-en-1-yl)(4-hydroxyphenyl)methyl)-1,3-dimethyl-2,6-dioxo-1,2,3,6-tetrahydropyrimidin-4-olate diethylaminium salt] returned an IC50 of 52.2 ± 1.26 µM.

In turn, `Cn1c(O)c(C(C2=C(O)CC(C)(C)CC2=O)c2ccc(Cl)cc2Cl)c(=O)n(C)c1=O` (stereo not shown) [Compound 4w, 5-((2,4-Dichlorophenyl)(2-hydroxy-4,4-dimethyl-6-oxocyclohex-1-en-1-yl)methyl)-1,3-dimethyl-2,6-dioxo-1,2,3,6-tetrahydropyrimidin-4-olate diethylaminium salt] returned an IC50 of 59.4 ± 0.98 µM.

`Cn1c(O)c(C(C2=C(O)CC(C)(C)CC2=O)c2ccc(C=O)cc2)c(=O)n(C)c1=O` (stereo not shown) [Compound 4x, 4-((6-hydroxy-1,3-dimethyl-2,4-dioxo-1,2,3,4-tetrahydropyrimidin-5-yl)(2-hydroxy-4,4-dimethyl-6-oxocyclohex-1-en-1-yl)methyl)benzaldehyde diethylaminium salt] had an IC50 of 38.5 ± 0.28 µM.

`Cn1c(O)c(C(C2=C(O)CC(C)(C)CC2=O)c2c(Cl)cccc2Cl)c(=O)n(C)c1=O` (stereo not shown) [Compound 4y, 5-((2,6-Dichlorophenyl)(2-hydroxy-4,4-dimethyl-6-oxocyclohex-1-en-1-yl)methyl)-1,3-dimethyl-2,6-dioxo-1,2,3,6-tetrahydropyrimidin-4-olate diethylaminium salt]: the half-maximal inhibitory concentration (IC50) was determined as 83.4 ± 1 µM.

Turning to `Cn1c(O)c(C(C2=C(O)CC(C)(C)CC2=O)c2ccc3ccccc3c2)c(=O)n(C)c1=O` (stereo not shown) [Compound 4z, 5-((2-Hydroxy-4,4-dimethyl-6-oxocyclohex-1-en-1-yl)(naphthalen-2-yl)methyl)-1,3-dimethyl-2,6-dioxo-1,2,3,6-tetrahydropyrimidin-4-olate diethylaminium salt], the IC50 came out at 39.8 ± 1.38 µM.

`CC1(C)CC(=O)C(C(C2=C(O)CC(C)(C)CC2=O)c2ccccc2)=C(O)C1` [Compound 5a, 2-((2-Hydroxy-4,4-dimethyl-6-oxocyclohex-1-en-1-yl)(phenyl)methyl)-5,5-dimethyl-3-oxocyclohex-1-enolate diethylaminium salt] displayed an IC50 of 74.5 ± 0.88 µM.
